From patent US20210323950A1, “HERBICIDALLY ACTIVE BICYCLIC BENZOYLPYRAZOLES” (Bayer Aktiengesellschaft, priority 2018, published 2021)

System: Cyperus esculentus (CYPES)
Assay: Pre-emergence herbicidal action against CYPES
Format: in vivo
Conditions: 320 g/ha, scored visually after about 3 weeks vs untreated controls
Excerpt: CYPES: Cyperus esculentus 1. Pre-Emergence Herbicidal Action and Crop Plant Compatibility Seeds of monocotyledonous and dicotyledonous weed plants and crop plants are placed in plastic or organic planting pots and covered with soil. The compounds of the invention, formulated in the form of wettable powders (WP) or as emulsion concentrates (EC), are then applied onto the surface of the covering soil as aqueous suspension or emulsion with addition of 0.5% additive at a water application rate of […] (converted). After the treatment, the pots are placed in a greenhouse and kept under good growth conditions for the trial plants. After about 3 weeks, the effect of the preparations is scored visually in comparison with untreated controls as percentages. The tables below show the herbicidal activity of numerous compounds according to the invention against important harmful plants. For example, 100% activity=the plants have died, 0% activity=like control plants.

Cn1ncc(C(=O)c2ccc(C(F)(F)F)c3c2OC[S+]3[O-])c1O (stereo not shown) [Example 1-28]
Pre-emergence action against CYPES: 90%
